Reference: publication PMC4011036, “Higher Desolvation Energy Reduces Molecular Recognition in Multi-Drug Resistant HIV-1 Protease” (Biology, 2012)

Legend:
[1] = molecular target: T1, HIV-1 protease NL4-3 (Human immunodeficiency virus type 1 group M subtype B, UniProt P12497, Q495K); experiment: HIV-1 protease inhibition (FRET substrate cleavage), NL4-3 (WT); assay type: biochemical; settings: FRET substrate I, 0.1 M sodium acetate, 1.0 M NaCl, 1.0 mM EDTA, 1.0 mM DTT, 10% DMSO, 1 mg/mL BSA, pH 4.7, fluorescence 340/490 nm, read-out: IC50 of HIV-1 protease inhibitors
T1 construct: made in house; host or cells: E. coli (pET21b)
Description: (§1) The HIV-1 protease reaction buffer was 0.1 M sodium acetate, 1.0 M sodium chloride, 1.0 mM ethylenediaminetetraacetic acid (EDTA), 1.0 mM DTT, 10% dimethylsulfoxide (DMSO), and 1 mg/mL bovine serum albumin (BSA) at pH 4.7. The protease concentration was adjusted to a substrate cleavage velocity of 5 Relative Fluorescence Units (RFU)/min in the absence of regular substrate. […] Upon the addition of the HIV-1 protease, the fluorescent signal emitted through the cleavage of the FRET substrate was recorded using SpectraMax M5 (Molecular Devices, Sunnyvale, CA, USA) at an excitation wavelength of 340 nm and an emission wavelength of 490 nm. The average velocity of FRET substrate cleavage in RFU/min was calculated based on fluorescent signal at 30 time point over 30 min.

[2] = molecular target: T2, HIV-1 protease MDR 3761 (Human immunodeficiency virus type 1 group M subtype B, UniProt P12497, A559I/G561T/I503V/I552V/I572V/I581L/K508I/L498I/L507I/L551P/L578M/M534I/P567S/Q495K/T500A); experiment: HIV-1 protease inhibition (FRET substrate cleavage), MDR 3761; assay type: biochemical; settings: FRET substrate I, 0.1 M sodium acetate, 1.0 M NaCl, 1.0 mM EDTA, 1.0 mM DTT, 10% DMSO, 1 mg/mL BSA, pH 4.7, fluorescence 340/490 nm, read-out: IC50 of HIV-1 protease inhibitors
T2 construct: made in house; host or cells: E. coli (pET21b)
Description: as §1

[3] = molecular target: T3, HIV-1 protease MDR 1385 (Human immunodeficiency virus type 1 group M subtype B, UniProt P12497, A559V/I581L/L498F/L551P/L577M/L578M/M524I/M534I/N525D/Q495K/R545K/V570T); experiment: HIV-1 protease inhibition (FRET substrate cleavage), MDR 1385; assay type: biochemical; settings: FRET substrate I, 0.1 M sodium acetate, 1.0 M NaCl, 1.0 mM EDTA, 1.0 mM DTT, 10% DMSO, 1 mg/mL BSA, pH 4.7, fluorescence 340/490 nm, read-out: IC50 of HIV-1 protease inhibitors
T3 construct: made in house; host or cells: E. coli (pET21b)
Description: as §1

[4] = molecular target: T4, HIV-1 protease MDR 769 (Human immunodeficiency virus type 1 group M subtype B, UniProt P12497, A559V/I542V/I550V/I572V/L498I/L551P/L578M/M524V/M534L/Q495K/V570A); experiment: HIV-1 protease inhibition (FRET substrate cleavage), MDR 769; assay type: biochemical; settings: FRET substrate I, 0.1 M sodium acetate, 1.0 M NaCl, 1.0 mM EDTA, 1.0 mM DTT, 10% DMSO, 1 mg/mL BSA, pH 4.7, fluorescence 340/490 nm, read-out: IC50 of HIV-1 protease inhibitors
T4 construct: made in house; host or cells: E. coli (pET21b)
Description: as §1

[5] = molecular target: T5, HIV-1 protease MDR 807 (Human immunodeficiency virus type 1 group M subtype B, UniProt P12497, A559V/G536V/I542T/I550V/I581L/L498I/L551Q/M534I/Q495K/Q549N/R529K/T562A/V565I/V570A); experiment: HIV-1 protease inhibition (FRET substrate cleavage), MDR 807; assay type: biochemical; settings: FRET substrate I, 0.1 M sodium acetate, 1.0 M NaCl, 1.0 mM EDTA, 1.0 mM DTT, 10% DMSO, 1 mg/mL BSA, pH 4.7, fluorescence 340/490 nm, read-out: IC50 of HIV-1 protease inhibitors
T5 construct: made in house; host or cells: E. coli (pET21b)
Description: as §1

[6] = system: four MDR protease variants; settings: four clinical MDR isolates, enzyme inhibition assays, relative to NL4-3 (WT)
Description: HIV protease Forster Resonance Energy Transfer (FRET) substrate I used in the IC50 determination and substrate interference was purchased from AnaSpec, Inc. (Fremont, CA, USA). The US FDA-approved HIV-1 protease inhibitors were kindly provided by the NIH AIDS Research and Reference Reagent Program (www.aidsreagent.org). The CA/p2 pseudopeptide with a reduced scissile peptide bond [-ψ(CH2NH)-] was synthesized in the Department of Chemistry, Wayne State University. The nine substrate hepta-peptides were purchase from SynBioSci Corporation, Livermore, CA, USA. […] The IC50 determination was described previously. […] The protease concentration was adjusted to a substrate cleavage velocity of 5 Relative Fluorescence Units (RFU)/min in the absence of regular substrate. […] Upon the addition of the HIV-1 protease, the fluorescent signal emitted through the cleavage of the FRET substrate was recorded using SpectraMax M5 (Molecular Devices, Sunnyvale, CA, USA) at an excitation wavelength of 340 nm and an emission wavelength of 490 nm. The average velocity of FRET substrate cleavage in RFU/min was calculated based on fluorescent signal at 30 time point over 30 min. In the control experiment, the average velocity of FRET substrate cleavage was determined in the absence of regular substrates. […]

Q: Which IC50 [1] does the source give for `CC(C)CN(C[C@@H](O)[C@H](Cc1ccccc1)NC(=O)O[C@H]1CCOC1)S(=O)(=O)c1ccc(N)cc1` [APV, amprenavir] here?
A: 0.43 nM

Q: And the IC50 [2]?
A: 4.1 nM

Q: And the IC50 [3]?
A: 3.1 nM

Q: What about the IC50 [4] of the same compound?
A: 4.8 nM

Q: And the IC50 [5]?
A: 2.9 nM

Q: Which results are given for `CCC[C@@]1(CCc2ccccc2)CC(O)=C([C@H](CC)c2cccc(NS(=O)(=O)c3ccc(C(F)(F)F)cn3)c2)C(=O)O1` [TPV, tipranavir]?
A: IC50 [1]: 0.24 nM; IC50 [2]: 0.63 nM; IC50 [3]: 2.8 nM; IC50 [4]: 0.65 nM; IC50 [5]: 0.63 nM

Q: With `Cc1cccc(C)c1OCC(=O)N[C@@H](Cc1ccccc1)[C@@H](O)C[C@H](Cc1ccccc1)NC(=O)[C@H](C(C)C)N1CCCNC1=O` [LPV, lopinavir] as the compound, how does the “resistance of MDR variants to inhibitors (in words)” value [6] read?
A: lower relative resistance

Q: Which results are given for `Cc1c(O)cccc1C(=O)N[C@@H](CSc1ccccc1)[C@H](O)CN1C[C@H]2CCCC[C@H]2C[C@H]1C(=O)NC(C)(C)C` [NFV, nelfinavir]?
A: IC50 [1]: 1.6 nM; IC50 [2]: 430 nM; IC50 [3]: 230 nM; IC50 [4]: 110 nM; IC50 [5]: 210 nM

Q: How did the IC50 [1] turn out when `COC(=O)N[C@H](C(=O)N[C@@H](Cc1ccccc1)[C@@H](O)CN(Cc1ccc(-c2ccccn2)cc1)NC(=O)[C@@H](NC(=O)OC)C(C)(C)C)C(C)(C)C` [ATV, atazanavir] was run?
A: 0.19 nM

Q: What about the IC50 [2] of the same compound?
A: 2.2 nM

Q: And the IC50 [3]?
A: 4.6 nM

Q: What about the IC50 [4] of the same compound?
A: 2.9 nM

Q: And the IC50 [5]?
A: 7.6 nM
